Measurements published in PMC9608663, “Anti-Alzheimer and Antioxidant Effects of Nelumbo nucifera L. Alkaloids, Nuciferine and Norcoclaurine in Alloxan-Induced Diabetic Albino Rats” (Pharmaceuticals, 2022).
Values joined by “and” are separate entries in the source; they are usually repeats but may differ in a detail not shown here. Equal entries are not always repeated.

Tests used:
[1] = test system: alloxan-induced diabetic rats; test: Blood glucose level in alloxan-induced diabetic rats; type: in vivo, albino rats (Sprague–Dawley); conditions: 10 mg/kg b.w./day
Description: (§1) Forty-two (42) fully matured albino rats (200–250 g b.w.) of Sprague–Dawley types were purchased from National Institute of Health, Islamabad, Pakistan and kept under normal conditions for 15 days with 12-h dark/light rotation.
(§2) Alloxan monohydrate injection (100 mg/kg) was applied to experimental rats to induce diabetic conditions followed by giving 5% glucose water for 28 h in order to decrease the death probability in alloxan-induced rates from hyperglycemic shock. Over 300 mg/dL (3 mg/mL) blood glucose level (fasting blood plasma) was considered diabetic and a selective parameter for further study.
(§3) The rats were divided into seven groups (six rats in each group). Normal and diabetic control groups I and II, standard glibenclamide (10 mg/kg) group III, N. nucifera crude (100–200 mg/kg) groups IV and V and nuciferine and norcoclaurine (10 mg/kg) group VI and VII. Rats were anesthetized after 15 days and their organ sections were collected for different activities. Blood was collected from each rat and centrifuged at 4000 rpm for 10 min for antioxidant enzyme activities. The brain was homogenized in 100 mM Tris buffer (Sigma, Hamburg, Germany) (pH 8.0).

[2] = Body weight of alloxan-induced diabetic rats; type: in vivo, albino rats (Sprague–Dawley); conditions: 10 mg/kg b.w./day
Description: as §1, §2, §3

[3] = test system: lipid peroxidation (TBARS); test: Lipid peroxidation assay (TBARS) in blood of diabetic rats; type: in vivo, albino rats (Sprague–Dawley); conditions: 10 mg/kg, 15 days
Description: as §3
The lipid peroxidation activity in the blood sample was determined by slight modification in Sohal’s method. The reaction mixtures containing homogenate sample (0.2 mL) in 0.1 M phosphate buffer pH 7.4 (0.58 mL), ferric chloride (0.02 mL) and ascorbic acid (0.2 mL). The reaction mixture was incubated at […] for 1 h and stopped the reaction by adding 10% trichloro-acetic acid. The reaction mixture was continuously boiled, shaken for 20 min in a water bath and centrifuged for 10 min. The formation of TBARS was monitored at wavelength of 535 nm.

[4] = test system: superoxide dismutase (SOD); test: Superoxide dismutase assay (SOD) in blood of diabetic rats; type: in vivo, albino rats (Sprague–Dawley); conditions: 10 mg/kg, 15 days
Description: as §3
Superoxide dismutase activity was determined by an assay mixture containing 0.3 mL blood sample, 1.2 mL sodium pyrophosphate, 0.1 mL phenazine methosulphate and 0.2 mL NADH. The reaction was stopped within a minute by adding 1 mL of glacial acetic acid and the concentration of product was monitored at 560 nm.

catalase (CAT) = test: Catalase assay (CAT) in blood of diabetic rats; type: in vivo, albino rats (Sprague–Dawley); conditions: 10 mg/kg, 15 days
Description: as §3, with “8.0). Protein variation for several brain structures was measured followed by protein determination of striatum (0.3 mg/mL), hippocampus (0.6.0 mg/mL), cerebellum (0.7 mg/mL) and hypothalamus (0.4 mg/mL and cerebral cortex (0.8.0 mg/mL)).” for “8.0).”
Catalase activity was determined in blood samples by modified method of Chance and Maehly. The assay mixture comprised 0.1 mL blood serum, 2.5 mL phosphate buffer (pH 5) and 0.4 mL H2O2 while the absorbance was measured at 240 nm.

[5] = test system: glutathione peroxidase (GPx); test: Glutathione peroxidase assay (GSH-Px) in blood of diabetic rats; type: in vivo, albino rats (Sprague–Dawley); conditions: 10 mg/kg, 15 days
Description: as §3
Glutathione peroxidase assay was carried out by reaction mixtures of 0.1 mL blood serum with 1.49 mL phosphate buffer (pH 7.4), 0.1 mL EDTA, 0.1 mL sodium azide, 0.1 mL NADPH, 0.05 mL GSH and 0.01 mL H2O2. The intensity of color loss of NADPH was measured at 340 nm.

[6] = test system: reduced glutathione (GSH); test: Reduced glutathione assay (GSH) in blood of diabetic rats; type: in vivo, albino rats (Sprague–Dawley); conditions: 10 mg/kg, 15 days
Description: as §3
GSH assay was carried out by mixing the blood serum with substrate DTNB by the modified method of Biessels.

[7] = molecular target: T1, acetylcholinesterase (AChE) (Rattus norvegicus, UniProt P37136); test: AChE activity in brain regions of diabetic rats; type: in vivo; conditions: 10 mg/kg, 15 days; for AChE activity, Cerebellum: cerebellum homogenate; for AChE activity, Cerebral Cortex: cerebral cortex homogenate; for AChE activity, Hippocampus: hippocampus homogenate; for AChE activity, Hypothalamus: hypothalamus homogenate; for AChE activity, Striatum: striatum homogenate
T1 construct: from tissue; host or cells: rat brain homogenate (cerebral cortex, cerebellum, hypothalamus, striatum, hippocampus)
T1 sequence (P37136 32-614): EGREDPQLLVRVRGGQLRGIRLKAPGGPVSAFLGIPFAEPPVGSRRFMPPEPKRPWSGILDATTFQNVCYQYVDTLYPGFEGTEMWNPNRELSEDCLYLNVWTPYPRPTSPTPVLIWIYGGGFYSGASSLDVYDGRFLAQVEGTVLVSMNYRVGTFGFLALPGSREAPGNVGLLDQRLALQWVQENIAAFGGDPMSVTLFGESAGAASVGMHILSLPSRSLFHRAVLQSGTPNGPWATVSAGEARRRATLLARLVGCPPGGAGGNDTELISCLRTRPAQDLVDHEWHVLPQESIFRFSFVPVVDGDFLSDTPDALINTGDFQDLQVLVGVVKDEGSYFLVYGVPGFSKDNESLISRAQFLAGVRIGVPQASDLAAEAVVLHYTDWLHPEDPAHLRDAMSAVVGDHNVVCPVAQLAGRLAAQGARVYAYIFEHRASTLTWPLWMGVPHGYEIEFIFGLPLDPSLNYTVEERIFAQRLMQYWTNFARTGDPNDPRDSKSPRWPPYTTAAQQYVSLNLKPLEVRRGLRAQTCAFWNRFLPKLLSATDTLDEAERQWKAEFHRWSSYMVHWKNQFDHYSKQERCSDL
Description: as §3
(§4) In the brain (hippocampus, cerebellum, hypothalamus, striatum and cerebral cortex) and in the blood, AChE activity was measured using calorimetric method with slight modification. The sample of 0.1 mL brain homogenate as well as blood serum (containing 100 mM potassium phosphate buffer (pH 7.5), 1 mM DTNB and 0.8 mM […] (Sigma, Hamburg, Germany) were tested as AChE enzyme. The increase in enzyme activity was measured at 412 nm after the formation of the yellow-colored anion of 4, 4-ditheo-bis-nitrobenzoic acid and experiments were performed in triplicates.

[8] = test system: acetylcholinesterase (AChE); type: in vivo; conditions: blood of diabetic rats, 10 mg/kg, 15 days; table title: AChE activity, µmol AcSCh/h/mg of protein
Description: as §3, §4

| Structure (SMILES) | Blood Glucose Level ([1]; day 0) | Blood Glucose Level ([1]; day 5) | Blood Glucose Level ([1]; day 10) | Blood Glucose Level ([1]; day 15, 10 mg/kg/day) | Variations in Body Weight ([2]; day 0) | Variations in Body Weight ([2]; day 5) | Variations in Body Weight ([2]; day 10) | TBARS [3] | SOD [4] | CAT (catalase (CAT)) | GPx [5] | GSH [6] | AChE activity, Cerebellum [7] | AChE activity, Cerebral Cortex [7] | AChE activity, Hippocampus [7] | AChE activity, Hypothalamus [7] | AChE activity, Striatum [7] | AChE activity [8] | Variations in Body Weight ([2]; day 15, 10 mg/kg/day) | further results |
| --- | --- | --- | --- | --- | --- | --- | --- | --- | --- | --- | --- | --- | --- | --- | --- | --- | --- | --- | --- | --- |
| COc1ccc(Cl)cc1C(=O)NCCc1ccc(S(=O)(=O)NC(=O)NC2CCCCC2)cc1 [glibenclamide, reference compound] | 2.00 ± 1.85 mg/mL | 1.54 ± 1.68 mg/mL | 1.37 ± 1.20 mg/mL | 0.94 ± 1.20 mg/mL | 180.11 ± 1.90 g | 169.54 ± 2.41 g | 171.23 ± 2.07 g | 1.55 ± 0.8 nmol MDA/mg Protein | 5.91 ± 0.3 SOD/mg Protein | 6.45 ± 3.9 E/min/mg Protein | 7.80 ± 1.6 nmol NADPH/min/mg Protein | 89.52 ± 4.74 GSH/mg Protein | 50 ± 1.20 µmol AcSCh/h/mg of protein | 55 ± 2.06 µmol AcSCh/h/mg of protein | 43 ± 1.10 µmol AcSCh/h/mg of protein | 50 ± 2.15 µmol AcSCh/h/mg of protein | 46 ± 1.59 µmol AcSCh/h/mg of protein | 45 ± 2.01 % |  | Blood Glucose Level ([1]; day 15, listed as glibencamide, 10 mg/kg/day): 0.94 ± 1.20 mg/mL; Variations in Body Weight ([2]; day 15): 179.50 ± 1.40 g |
| Oc1ccc(CC2NCCc3cc(O)c(O)cc32)cc1 (stereo not shown) [norcoclaurine] | 2.10 ± 4.67 mg/mL | 1.70 ± 3.25 mg/mL | 1.58 ± 1.43 mg/mL |  | 178.22 ± 7.61 g | 159.85 ± 1.34 g | 169.11 ± 3.01 g | 1.98 ± 0.9 nmol MDA/mg Protein | 6.2 ± 0.7 SOD/mg Protein | 5.1 ± 0.3 E/min/mg Protein | 6.70 ± 0.89 nmol NADPH/min/mg Protein | 76.68 ± 0.4 GSH/mg Protein | 57 ± 1.40 µmol AcSCh/h/mg of protein | 60 ± 0.80 µmol AcSCh/h/mg of protein | 48 ± 0.20 µmol AcSCh/h/mg of protein | 60 ± 4.30 µmol AcSCh/h/mg of protein | 56 ± 0.90 µmol AcSCh/h/mg of protein | 55 ± 1.23 % | 178.91 ± 1.32 g | Blood Glucose Level ([1]; day 15): 1.08 ± 3.15 mg/mL |
| COc1cc2c3c(c1OC)-c1ccccc1C[C@H]3N(C)CC2 [nuciferine] | 2.05 ± 3.85 mg/mL | 1.64 ± 2.51 mg/mL | 1.42 ± 1.23 mg/mL | 1.00 ± 1.45 mg/mL | 177.43 ± 4.19 g | 161.97 ± 2.21 g | 173.22 ± 2.67 g | 1.60 ± 0.8 nmol MDA/mg Protein | 7.1 ± 0.2 SOD/mg Protein | 6.16 ± 0.7 E/min/mg Protein | 7.98 ± 0.9 nmol NADPH/min/mg Protein | 86.96 ± 0.7 GSH/mg Protein | 53 ± 1.70 µmol AcSCh/h/mg of protein | 56 ± 1.41 µmol AcSCh/h/mg of protein | 41 ± 1.10 µmol AcSCh/h/mg of protein | 55 ± 3.20 µmol AcSCh/h/mg of protein | 50 ± 1.90 µmol AcSCh/h/mg of protein | 42 ± 7.43 % | 182.33 ± 3.05 g and 177.33 ± 3.05 g |  |
